Measured values as given in patent publication US7235252B2, “Method of preparing organic peroxyacids” (priority 2002, dated 2007).

Key:
[1] = Peracetic acid formation rate and stability with N-acyl donors in parent solution (double titration); assay type: physicochemical; conditions: equimolar N-acyl donor dispersed in parent solution
Text: The other conditions (temperature, humidity, generator composition) being the same, equimolar amounts of the three N-acyl donors were dispersed in the parent solution to determine the formation rate of peracetic acid in the solution and the stability with time of such a concentration. The method adopted for quantitative determination of organic peroxyacid in the presence of a large excess of hydrogen peroxide (in this and in the following tests) was a sequential double-titration, the first of which is a permanganometric test designed to titre and eliminate any hydrogen peroxide in excess, and this was immediately followed by an iodometric titration to determine the concentration of the remaining organic peroxide. The results are shown below, both as activation rate (see FIG. 1), and stability of the peracetic acid concentration (see FIG. 2) are concerned.

[2] = Preliminary assessment of acetyl donating compounds; assay type: physicochemical
Text: Search work was initially directed towards finding out the best N-acyl and/or O-acyl activator of all those available and disclosed in the prior art referred to above. The features sought for in this initial search were: • a rapidly acting acylating agent (i.e. provided with an electrophilic carbonyl carbon) suitable for causing a perhydrolysis reaction due to electron-withdrawing effect on the carbonyl carbon and for providing a sufficiently high concentration of its respective peracid within short times (20–30 minutes) for the specified objects; • a good conservation under standard storage conditions (at temperatures ranging from 20° and 40° C.). • an ability to yield after activation an activated solution in which the organic peroxyacid concentration is as stable as possible. […]

[3] = tested on: bacterial spores (sporicidal activity); assay: Minimum effective concentration (CME) by sporicidal activity; assay type: cell-based; conditions: minimum peracetic acid concentration with sporicidal activity over contact time of 15 minutes
Procedure: In the search study carried out with an endoscope washing machine, the solution was used by operating 10 full daily cycles of high-level disinfection or, better, cold-chemical sterilization for a total of 120 cycles. The contact time set for the sterilization step was 30 minutes. As it will be noted, immediately after activation, the concentration increases at a fast-rate, overcomes the minimum effective concentration level (Minimum Effective Concentration Level ═CME) equal to 0.05% w/v just after 15–20 minutes and reaches a maximum value equal to 0.35% w/v after 24 hours. During the following days, concentration decreases slowly down to a minimum effective level below which the effectiveness set forth below is not provided any longer. This threshold level (CME) was fixed and defined by means of the minimum % concentration of peracetic acid at which a sporicidal activity is still detected over a contact time of 15 minutes.

| SMILES | Stability of peracetic acid concentration with time (FIG. 2) [1] | Stability under standard storage conditions [2] | Minimum Effective Concentration Level (CME) [3] [% w/v] |
| --- | --- | --- | --- |
| CC(=O)ON1C(=O)CCC1=O [N-acetoxysuccinimide] | poor stability with time | poor stability | – |
| CC(=O)N1CCCCCC1=O [N-acetylcaprolactam] | good stability | – | – |
| CC(=O)N1C(=O)CCC1=O [N-acetylsuccinimide] | behavior similar to that of N-OSU | poor stability | – |
| CC(=O)OO [peracetic acid] | – | – | 0.05 |
